Assay results reported in ChEMBL document CHEMBL5614431, “Discovery of 1,3,4-oxadiazoles with slow-action activity against Plasmodium falciparum malaria parasites” (Eur J Med Chem, 2024).

System: Plasmodium falciparum
Test: Antimalarial activity against synchronous ring stage Plasmodium falciparum 3D7 infected in human Erythrocyte assessed as inhibition of parasite growth incubated for 48 hrs by [3H]-hypoxanthine incorporation assay
Format: functional, organism-based
Conditions: 3D7, Erythrocyte

SMILES	IC50 [µM]
O=S(=O)(c1nnc(N2CCOCC2)o1)C1CC2CCC1C2 (racemic)	> 10
O=S(=O)(c1nnc(N2C3CCC2COC3)o1)C1CCCCC1	> 12.5
CC(C)(C)OC(=O)[C@@H]1CCCN1c1nnc(S(=O)(=O)C2CCCCC2)o1	> 25
O=S(=O)(c1nnc(N2CCC(c3ccccc3)CC2)o1)C1CCCCC1	> 100
N#CC1CCN(c2nnc(S(=O)(=O)C3CCCCC3)o2)CC1	> 10
O=S(=O)(CC12CC3CC(CC(C3)C1)C2)c1nnc(N2CCCCC2)o1	13.7
CC1(C)CCN(c2nnc(S(=O)(=O)C3CCCCC3)o2)CC1	> 25
O=S(=O)(c1nnc(N2CCc3ccccc32)o1)C1CCCCC1	> 10
O=S(=O)(c1ccc(Cl)c(Cl)c1)c1nnc(N2CCOCC2)o1	13.1
O=S1(=O)CCN(c2nnc(S(=O)(=O)C3CCCCC3)o2)CC1	> 25
CC1CCCCN1c1nnc(S(=O)(=O)C2CCCCC2)o1 (racemic)	> 12.5
Cc1ccc(C)c(CSc2nnc(N3CCOCC3)o2)c1	> 50
Cl.O=S(=O)(c1nnc(N2CCOCC2)o1)C1CCNCC1	> 50
Cc1ccc(C)c(C[S+]([O-])c2nnc(N3CCOCC3)o2)c1 (stereo unspecified)	16.8
CC1CCCN(c2nnc(S(=O)(=O)C3CCCCC3)o2)C1 (racemic)	> 12.5
O=S(=O)(c1nnc(N2CC3CC2CO3)o1)C1CCCCC1 (racemic)	> 50
O=S(=O)(c1nnc(N2CCCC3(COC3)C2)o1)C1CCCCC1	> 50
O=S(=O)(c1nnc(N2CCCOCC2)o1)C1CCCCC1	> 100
O=S(=O)(c1nnc(N2CCNCC2)o1)C1CCCCC1	57.9
CC1CCN(c2nnc(S(=O)(=O)C3CCCCC3)o2)CC1	39.3
O=S(=O)(c1nnc(N2CCN(CC(F)(F)F)CC2)o1)C1CCCCC1	> 25
CC1CN(c2nnc(S(=O)(=O)C3CCCCC3)o2)CCO1 (racemic)	> 25
CC(=O)N1CCN(c2nnc(S(=O)(=O)C3CCCCC3)o2)CC1	> 50
O=S(=O)(c1nnc(N2CC3CCC2C3)o1)C1CCCCC1 (racemic)	> 25
O=S(=O)(c1nnc(N2CCOc3ccccc32)o1)C1CCCCC1	4.65
CCOC(=O)C1CCCN(c2nnc(S(=O)(=O)C3CCCCC3)o2)C1 (racemic)	> 25
O=S(=O)(CC1(C(F)(F)F)CC1)c1nnc(N2CCOCC2)o1	> 12.5

System: Plasmodium falciparum
Test: Antimalarial activity against synchronous ring stage Plasmodium falciparum 3D7 infected in human Erythrocyte assessed as inhibition of parasite growth incubated for 96 hrs by [3H]-hypoxanthine incorporation assay
Format: functional, organism-based
Conditions: 3D7, Erythrocyte

SMILES	IC50 [µM]
O=S(=O)(c1nnc(N2CCOCC2)o1)C1CC2CCC1C2 (racemic)	0.28
O=S(=O)(c1nnc(N2C3CCC2COC3)o1)C1CCCCC1	0.37
CC(C)(C)OC(=O)[C@@H]1CCCN1c1nnc(S(=O)(=O)C2CCCCC2)o1	2.65
O=S(=O)(c1nnc(N2CCC(c3ccccc3)CC2)o1)C1CCCCC1	13.5
N#CC1CCN(c2nnc(S(=O)(=O)C3CCCCC3)o2)CC1	0.49
O=S(=O)(CC12CC3CC(CC(C3)C1)C2)c1nnc(N2CCCCC2)o1	0.4
CC1(C)CCN(c2nnc(S(=O)(=O)C3CCCCC3)o2)CC1	0.15
O=S(=O)(c1nnc(N2CCc3ccccc32)o1)C1CCCCC1	1.12
O=S(=O)(c1ccc(Cl)c(Cl)c1)c1nnc(N2CCOCC2)o1	24.6
O=S1(=O)CCN(c2nnc(S(=O)(=O)C3CCCCC3)o2)CC1	6.75
CC1CCCCN1c1nnc(S(=O)(=O)C2CCCCC2)o1 (racemic)	0.31
Cc1ccc(C)c(CSc2nnc(N3CCOCC3)o2)c1	> 50
Cl.O=S(=O)(c1nnc(N2CCOCC2)o1)C1CCNCC1	> 50
Cc1ccc(C)c(C[S+]([O-])c2nnc(N3CCOCC3)o2)c1 (stereo unspecified)	13.7
CC1CCCN(c2nnc(S(=O)(=O)C3CCCCC3)o2)C1 (racemic)	0.1
O=S(=O)(c1nnc(N2CC3CC2CO3)o1)C1CCCCC1 (racemic)	1.58
O=S(=O)(c1nnc(N2CCCC3(COC3)C2)o1)C1CCCCC1	0.54
O=S(=O)(c1nnc(N2CCCOCC2)o1)C1CCCCC1	0.75
O=S(=O)(c1nnc(N2CCNCC2)o1)C1CCCCC1	3.58
CC1CCN(c2nnc(S(=O)(=O)C3CCCCC3)o2)CC1	0.22
O=S(=O)(c1nnc(N2CCN(CC(F)(F)F)CC2)o1)C1CCCCC1	2.35
CC1CN(c2nnc(S(=O)(=O)C3CCCCC3)o2)CCO1 (racemic)	0.38
CC(=O)N1CCN(c2nnc(S(=O)(=O)C3CCCCC3)o2)CC1	1.46
O=S(=O)(c1nnc(N2CC3CCC2C3)o1)C1CCCCC1 (racemic)	0.56
O=S(=O)(c1nnc(N2CCOc3ccccc32)o1)C1CCCCC1	2.06
CCOC(=O)C1CCCN(c2nnc(S(=O)(=O)C3CCCCC3)o2)C1 (racemic)	0.93
O=S(=O)(CC1(C(F)(F)F)CC1)c1nnc(N2CCOCC2)o1	3.19

System: not listed separately
Test: Selectivity ratio of IC50 for antimalarial activity against synchronous ring stage Plasmodium falciparum 3D7 infected in human Erythrocyte assessed as inhibition of parasite growth incubated for 48 hrs by [3H]-hypoxanthine incorporation assay to IC50 for antimalarial activity against synchronous ring stage Plasmodium falciparum 3D7 infected in human Erythrocyte assessed as inhibition of parasite growth incubated for 48 hrs by [3H]-hypoxanthine incorporation assay
Format: functional
Conditions: not given

SMILES	Ratio IC50
O=S(=O)(c1nnc(N2CCOCC2)o1)C1CC2CCC1C2 (racemic)	>36
O=S(=O)(c1nnc(N2C3CCC2COC3)o1)C1CCCCC1	>34
CC(C)(C)OC(=O)[C@@H]1CCCN1c1nnc(S(=O)(=O)C2CCCCC2)o1	>9
O=S(=O)(c1nnc(N2CCC(c3ccccc3)CC2)o1)C1CCCCC1	>7
N#CC1CCN(c2nnc(S(=O)(=O)C3CCCCC3)o2)CC1	>21
O=S(=O)(CC12CC3CC(CC(C3)C1)C2)c1nnc(N2CCCCC2)o1	35
CC1(C)CCN(c2nnc(S(=O)(=O)C3CCCCC3)o2)CC1	>171
O=S(=O)(c1nnc(N2CCc3ccccc32)o1)C1CCCCC1	>9
O=S(=O)(c1ccc(Cl)c(Cl)c1)c1nnc(N2CCOCC2)o1	0.5
O=S1(=O)CCN(c2nnc(S(=O)(=O)C3CCCCC3)o2)CC1	>4
CC1CCCCN1c1nnc(S(=O)(=O)C2CCCCC2)o1 (racemic)	>40
Cl.O=S(=O)(c1nnc(N2CCOCC2)o1)C1CCNCC1	1
Cc1ccc(C)c(C[S+]([O-])c2nnc(N3CCOCC3)o2)c1 (stereo unspecified)	1
CC1CCCN(c2nnc(S(=O)(=O)C3CCCCC3)o2)C1 (racemic)	>125
O=S(=O)(c1nnc(N2CC3CC2CO3)o1)C1CCCCC1 (racemic)	>32
O=S(=O)(c1nnc(N2CCCC3(COC3)C2)o1)C1CCCCC1	>93
O=S(=O)(c1nnc(N2CCCOCC2)o1)C1CCCCC1	>134
O=S(=O)(c1nnc(N2CCNCC2)o1)C1CCCCC1	16
CC1CCN(c2nnc(S(=O)(=O)C3CCCCC3)o2)CC1	182
O=S(=O)(c1nnc(N2CCN(CC(F)(F)F)CC2)o1)C1CCCCC1	>11
CC1CN(c2nnc(S(=O)(=O)C3CCCCC3)o2)CCO1 (racemic)	>66
CC(=O)N1CCN(c2nnc(S(=O)(=O)C3CCCCC3)o2)CC1	>34
O=S(=O)(c1nnc(N2CC3CCC2C3)o1)C1CCCCC1 (racemic)	>45
O=S(=O)(c1nnc(N2CCOc3ccccc32)o1)C1CCCCC1	2.3
CCOC(=O)C1CCCN(c2nnc(S(=O)(=O)C3CCCCC3)o2)C1 (racemic)	>27
O=S(=O)(CC1(C(F)(F)F)CC1)c1nnc(N2CCOCC2)o1	>4

System: not listed separately
Test: Cytotoxicity against human NFF cells assessed as reduction in cell viability incubated for 72 hrs by SRB assay
Format: toxicity, cell-based
Conditions: not given

SMILES	IC50 at 72 h [µM]
O=S(=O)(c1nnc(N2CCOCC2)o1)C1CC2CCC1C2 (racemic)	> 100
O=S(=O)(c1nnc(N2C3CCC2COC3)o1)C1CCCCC1	> 100
CC(C)(C)OC(=O)[C@@H]1CCCN1c1nnc(S(=O)(=O)C2CCCCC2)o1	> 100
N#CC1CCN(c2nnc(S(=O)(=O)C3CCCCC3)o2)CC1	> 100
O=S(=O)(CC12CC3CC(CC(C3)C1)C2)c1nnc(N2CCCCC2)o1	30.5
CC1(C)CCN(c2nnc(S(=O)(=O)C3CCCCC3)o2)CC1	> 100
O=S(=O)(c1nnc(N2CCc3ccccc32)o1)C1CCCCC1	> 25
CC1CCCCN1c1nnc(S(=O)(=O)C2CCCCC2)o1 (racemic)	> 100
CC1CCCN(c2nnc(S(=O)(=O)C3CCCCC3)o2)C1 (racemic)	> 100
O=S(=O)(c1nnc(N2CC3CC2CO3)o1)C1CCCCC1 (racemic)	> 100
O=S(=O)(c1nnc(N2CCCC3(COC3)C2)o1)C1CCCCC1	> 100
O=S(=O)(c1nnc(N2CCCOCC2)o1)C1CCCCC1	> 100
CC1CCN(c2nnc(S(=O)(=O)C3CCCCC3)o2)CC1	> 50
CC1CN(c2nnc(S(=O)(=O)C3CCCCC3)o2)CCO1 (racemic)	> 100
CC(=O)N1CCN(c2nnc(S(=O)(=O)C3CCCCC3)o2)CC1	> 100
O=S(=O)(c1nnc(N2CC3CCC2C3)o1)C1CCCCC1 (racemic)	> 100
O=S(=O)(c1nnc(N2CCOc3ccccc32)o1)C1CCCCC1	21.4
CCOC(=O)C1CCCN(c2nnc(S(=O)(=O)C3CCCCC3)o2)C1 (racemic)	> 100

System: not listed separately
Test: Selectivity index, ratio of IC50 for cytotoxicity against human NFF cells to IC50 for antimalarial activity against synchronous ring stage Plasmodium falciparum 3D7 infected in human Erythrocyte assessed as inhibition of parasite growth incubated for 96 hrs
Format: toxicity, cell-based
Conditions: read-out: Ratio IC50

SMILES	selectivity ratio at 96 h
O=S(=O)(c1nnc(N2CCOCC2)o1)C1CC2CCC1C2 (racemic)	> 377
O=S(=O)(c1nnc(N2C3CCC2COC3)o1)C1CCCCC1	> 270
CC(C)(C)OC(=O)[C@@H]1CCCN1c1nnc(S(=O)(=O)C2CCCCC2)o1	> 38
N#CC1CCN(c2nnc(S(=O)(=O)C3CCCCC3)o2)CC1	> 200
O=S(=O)(CC12CC3CC(CC(C3)C1)C2)c1nnc(N2CCCCC2)o1	76
CC1(C)CCN(c2nnc(S(=O)(=O)C3CCCCC3)o2)CC1	> 1080
O=S(=O)(c1nnc(N2CCc3ccccc32)o1)C1CCCCC1	> 26
CC1CCCCN1c1nnc(S(=O)(=O)C2CCCCC2)o1 (racemic)	> 277
CC1CCCN(c2nnc(S(=O)(=O)C3CCCCC3)o2)C1 (racemic)	> 1000
O=S(=O)(c1nnc(N2CC3CC2CO3)o1)C1CCCCC1 (racemic)	> 63
O=S(=O)(c1nnc(N2CCCC3(COC3)C2)o1)C1CCCCC1	> 185
O=S(=O)(c1nnc(N2CCCOCC2)o1)C1CCCCC1	> 133
CC1CCN(c2nnc(S(=O)(=O)C3CCCCC3)o2)CC1	> 227
CC1CN(c2nnc(S(=O)(=O)C3CCCCC3)o2)CCO1 (racemic)	> 263
CC(=O)N1CCN(c2nnc(S(=O)(=O)C3CCCCC3)o2)CC1	> 69
O=S(=O)(c1nnc(N2CC3CCC2C3)o1)C1CCCCC1 (racemic)	> 179
O=S(=O)(c1nnc(N2CCOc3ccccc32)o1)C1CCCCC1	10
CCOC(=O)C1CCCN(c2nnc(S(=O)(=O)C3CCCCC3)o2)C1 (racemic)	> 111
